The results in this text go back to patent US9463256B2, “Pretargeting kit, method and agents used therein” (KONINKLIJKE PHILIPS N.V., priority 2010, dated 2016).

Data set [1] can be described thus: Second order kinetic constants of the reactions between CC49-TCO constructs and ^177Lu-28. In kind it is physicochemical. The note with it: for Second order kinetic constant: new TCOs conjugated to CC49, reaction with ^177Lu-28, procedures of Example 5; for Second order kinetic constant, PEG10 Spacer / Second order kinetic constant, No Spacer: TCO conjugated to CC49, reaction with ^177Lu-28 in PBS, pH 7.4 at 37° C. As for the experimental part: Typically, 1 mg CC49 (5 mg/mL solution in PBS) was modified with 0.6 molar (for kinetic measurements) or 10 molar eq. (for in vivo studies) of TCO-NHS constructs in a total volume of 250 μL PBS. The pH was adjusted to 9 with 1 M sodium carbonate buffer. The reactions were carried out under agitation for 30 min at RT in the dark. Subsequently, the TCO-modified mAbs were extensively washed with PBS using Amicon Ultra-15 centrifugal devices. The numbers of TCO groups per antibody were determined with a tetrazine titration, outlined below.
Tetrazine-DOTA 28 was radiolabeled with carrier-added ^177Lu. mAb (25 μg) modified with ca. 0.6 molar eq. TCO was reacted with 3 molar eq. of ^177Lu-28 (0.5 nM). mAb (25 μg) modified with ca. 10 molar eq. TCO was reacted with 15 molar eq. of ^177Lu-28 (2.5 nM). The reactions were carried out in 50 μL PBS pH 7.4 at 37° C. for 10 min. The reaction mixtures were analyzed by SDS-PAGE and phosphor imager and the reaction yields were determined from the radioactivity in the bands corresponding to the mAb. The counts were quantified with AIDA Image Analyzer software (Raytest).
Tetrazine-DOTA 28 was radiolabeled with carrier-added ^177Lu at a specific activity of 3 MBq/μg. ^177Lu-28 (33 nM) was reacted with increasing concentrations of CC49 modified with 1 eq. of TCO (0.33, 1, and 1.67 μM) in 200 μL PBS, pH 7.4 at 37° C. for 5 min. At selected times (15, 30, 45, 60, 90, 120, 180, and 300 sec) a 20 μL sample was withdrawn and quenched with tetrazine 6 (FIG. 5; described in Rossin et al. Angew Chem Int Ed 2010, 49, 3375) (1.5 μL, 5 mg/mL in DMF). Aliquots of each mixture were analyzed by SDS-PAGE and phosphor imager and the cycloaddition yields were determined from the radioactivity in the bands corresponding to the mAb. The counts were quantified with AIDA Image Analyzer software (Raytest).
The newly synthesized TCO constructs were evaluated with respect to their reactivity towards tetrazine 28. The procedures are described in Example 5.

The subject of data set [2] is LS174T tumor model. Kind of data set: Biodistribution experiments in tumor bearing mice pretargeted with CC49-TCO constructs. It counts as in vivo, Nude female Balb/C mice. The conditions noted are these: for ^177Lu-tetrazine in Blood / ^177Lu-tetrazine in Bone / ^177Lu-tetrazine in Brain / ^177Lu-tetrazine in Heart / ^177Lu-tetrazine in Kidney / ^177Lu-tetrazine in Liver / ^177Lu-tetrazine in Lung / ^177Lu-tetrazine in Muscle / ^177Lu-tetrazine in Spleen / ^177Lu-tetrazine in Tumor: 3 h after injection. As for the experimental part:
(§1) LS174T tumor model. The human colon cancer cell line LS174T was obtained from the ATCC and maintained in Eagle's minimal essential medium (Sigma) supplemented with 10% heat inactivated fetal calf serum (Gibco), penicillin (100 U/mL), streptomycin (100 μg/mL) and 2 mM Glutamax. Nude female Balb/C mice (20-25 g body weight, Charles River Laboratories) were inoculated subcutaneously with 5×10^6 cells in 100 μL sterile PBS.
Dual isotope biodistribution experiments were performed by injecting tumor bearing mice (n=3) intravenously with ^125I-labeled CC49-TCO constructs with and without PEG10 spacer (100 μg/100 μL per mouse, ca. […] 0.8 MBq). Three hours after tetrazine administration, the animals were anesthetized with isoflurane and sacrificed by cervical dislocation. Blood was withdrawn by heart puncture and organs and tissues of interest were harvested, blotted dry and weighed. The radioactivity of the samples was measured in a γ-counter along with standards to determine the % ID/gram. The energy windows were set to 10-80 keV and 100-510 keV for ^125I and ^111In, respectively.

The test system of data set [3] is LS174T tumor model. Kind of data set: Biodistribution of ^177Lu-tetrazine 28 in tumor bearing mice pretargeted with CC49-TCO 44b. In kind it is in vivo, Nude female Balb/C mice. The conditions noted are these: 3 h after injection, 50 h after ^125I-CC49-TCO-44b, two doses of clearing agent. As for the experimental part: as §1
Tumor-bearing mice (see Methods; 100 mm^3 tumor size; n=4) were injected with ^125I-CC49 functionalized with 7.5 TCO 44b groups (100 μg/mouse, ca. 0.2 MBq). Thirty and 48 hours post-mAb injection the mice received one dose of clearing agent (galactose-MSA-tetrazine, 160 μg/dose) followed 2 h later by ^177Lu-tetrazine 28 (10 eq. with respect to the mAb, ca. 0.5 MBq). Three hours post-tetrazine injection the mice were anesthetized and sacrificed by cervical dislocation, blood was withdrawn by heart puncture, organs and tissues of interest were harvested and blotted dry. All collected samples were weighed and added with 1 mL PBS. The sample radioactivity was measured in a gamma-counter with a dual-isotope protocol (10-80 keV window for ^125I and 155-380 keV window for ^177Lu) along with standards to determine the percent injected dose per gram tissue (% ID/g).

[4] abbreviates: 1 day pretargeting with CC49-23a.
Setting [5] is: 4 days pretargeting with CC49-23a.

For `O=C(COC1CC/C=C/CCC1)ON1C(=O)CCC1=O` (single isomer, unassigned) [44a, (E-Major)-2,5-dioxopyrrolidin-1-yl 2-(cyclooct-4-en-1-yloxy)acetate], in data set [1], the “Second order kinetic constant” value amounted to 20640 ± 485 M⁻¹ s⁻¹.

For `O=C(CCOCCOCCOCCOCCOCCOCCOCCOCCOCCOCCOCCOCCNC(=O)c1ccc(COC2CC/C=C/CCC2)cc1)ON1C(=O)CCC1=O` (stereo not shown) [23b, (E-minor)-2,5-Dioxopyrrolidin-1-yl 1-(4-((cyclooct-4-en-1-yloxy)methyl)phenyl)-1-oxo-5,8,11,14,17,20,23,26,29,32,35,38-dodecaoxa-2-azahentetracontan-41-oate], the “Second order kinetic constant, PEG10 Spacer” value in data set [1] is reported as “(23b) 156400 ± 3100 M^−1s^−1”.

For `O=C(Nc1ccc(C(=O)ON2C(=O)CCC2=O)cc1)OC1CC/C=C/CCC1` (stereo not shown) [14b, (E-minor)-2,5-dioxopyrrolidin-1-yl 4-(((cyclooct-4-en-1-yloxy)carbonyl)amino)benzoate], the “Second order kinetic constant, No Spacer” value in data set [1] is “(14b) 66550 ± 8800 M^−1s^−1”.

For the compound `O=C(ON1C(=O)CCC1=O)c1ccc(OC2CC/C=C/CCC2)cc1` (single isomer, unassigned) [52a, (E-Major)-2,5-dioxopyrrolidin-1-yl 4-(cyclooct-4-en-1-yloxy)benzoate], the “Second order kinetic constant” value in data set [1] is 20930 ± 3735 M⁻¹ s⁻¹.

Regarding `O=C(COC1CC/C=C/CCC1)ON1C(=O)CCC1=O` (single isomer, unassigned) [44b, (E-Minor)-2,5-dioxopyrrolidin-1-yl 2-(cyclooct-4-en-1-yloxy)acetate], the “Second order kinetic constant” value in data set [1] came to 134800 ± 997 M⁻¹ s⁻¹.

In the case of `CC1(CC(=O)ON2C(=O)CCC2=O)CC/C=C/CCC1` (stereo not shown) [compound 58, (E-Major,minor)-2,5-Dioxopyrrolidin-1-yl 2-(1-methylcyclooct-4-en-1-yl)acetate], the “Second order kinetic constant” value in data set [1] was found to be 323500 ± 43320 M⁻¹ s⁻¹.

On to `O=C(CCOCCOCCOCCOCCOCCOCCOCCOCCOCCOCCOCCOCCNC(=O)c1ccc(NC(=O)OC2CC/C=C/CCC2)cc1)ON1C(=O)CCC1=O` (stereo not shown) [27a, (E-major)-2,5-dioxopyrrolidin-1-yl 1-(4-(((cyclooct-4-en-1-yloxy)carbonyl)amino)phenyl)-1-oxo-5,8,11,14,17,20,23,26,29,32,35,38-dodecaoxa-2-azahentetracontan-41-oate], for which the “Second order kinetic constant, PEG10 Spacer” value in data set [1] was “(27a) 11030 ± 250 M^−1s^−1”.

Regarding `O=C(Nc1ccc(C(=O)ON2C(=O)CCC2=O)cc1)OC1CC/C=C/CCC1` (stereo not shown) [14a, (E-major)-2,5-dioxopyrrolidin-1-yl 4-(((cyclooct-4-en-1-yloxy)carbonyl)amino)benzoate], the “Second order kinetic constant, No Spacer” value in data set [1] was “(14a) 11350 ± 550 M^−1s^−1”.

As to `O=C(ON1C(=O)CCC1=O)C(OC1CC/C=C/CCC1)c1ccccc1` (single isomer, unassigned) [46b, (E-Minor)-2,5-dioxopyrrolidin-1-yl 2-(cyclooct-4-en-1-yloxy)-2-phenylacetate], the “Second order kinetic constant” value in data set [1] came to 163200 ± 2871 M⁻¹ s⁻¹.

Regarding `O=C([O-])CN1CCN(CC(=O)[O-])CCN(CC(=O)NCCOCCOCCOCCOCCOCCOCCOCCOCCOCCOCCOCCNC(=O)CCCC(=O)Nc2ccc(-c3nnc(-c4ccccn4)nn3)nc2)CCN(CC(=O)[O-])CC1.[177Lu+3]` [^177Lu-tetrazine 28], in the data set on LS174T tumor model [2] (setting [4]), the “^177Lu-tetrazine in Blood” value is 1.06 ± 0.34 % ID/gram, the “^177Lu-tetrazine in Bone” value was 0.11 ± 0.02 % ID/gram, the “^177Lu-tetrazine in Brain” value was determined as 0.03 ± 0.02 % ID/gram and the “^177Lu-tetrazine in Heart” value was 0.20 ± 0.02 % ID/gram. Besides, in the data set on LS174T tumor model [2] (setting [4]), the “^177Lu-tetrazine in Kidney” value was 1.73 ± 0.31 % ID/gram, the “^177Lu-tetrazine in Liver” value stood at 0.61 ± 0.15 % ID/gram, the “^177Lu-tetrazine in Lung” value is given as 0.32 ± 0.03 % ID/gram and the “^177Lu-tetrazine in Muscle” value was 0.06 ± 0.03 % ID/gram. In addition, in the data set with LS174T tumor model [2] (setting [4]), the “^177Lu-tetrazine in Spleen” value was found to be 0.30 ± 0.09 % ID/gram and the “^177Lu-tetrazine in Tumor” value came out at 3.09 ± 0.01 % ID/gram. In the data set on LS174T tumor model [2] (1 day pretargeting with CC49-23a, listed as 177Lu-tetrazine), the “^177Lu-tetrazine in Tumor” value is 3.09±0.01 % ID/gram. Moreover, in the data set on LS174T tumor model [2] (setting [5]), the “^177Lu-tetrazine in Blood” value came to 0.04 ± 0.01 % ID/gram, the “^177Lu-tetrazine in Bone” value is 0.06 ± 0.01 % ID/gram, the “^177Lu-tetrazine in Brain” value was determined as 0.01 ± 0.00 % ID/gram and the “^177Lu-tetrazine in Heart” value was 0.04 ± 0.00 % ID/gram. In the data set on LS174T tumor model [2] (setting [5]), the “^177Lu-tetrazine in Kidney” value is given as 1.73 ± 0.22 % ID/gram, the “^177Lu-tetrazine in Liver” value was 0.31 ± 0.03 % ID/gram, the “^177Lu-tetrazine in Lung” value is reported as 0.13 ± 0.05 % ID/gram and the “^177Lu-tetrazine in Muscle” value is on record as 0.02 ± 0.01 % ID/gram. For the same compound, in the data set on LS174T tumor model [2] (setting [5]), the “^177Lu-tetrazine in Spleen” value was 0.20 ± 0.00 % ID/gram and the “^177Lu-tetrazine in Tumor” value is given as 0.86 ± 0.39 % ID/gram. Moreover, the “^177Lu-tetrazine in Tumor” value in the data set on LS174T tumor model [2] (4 days pretargeting with CC49-23a, listed as 177Lu-tetrazine) was 0.86±0.39 % ID/gram. For the same compound, the “tumor-to-blood ratio (T/B)” value in the data set with LS174T tumor model [2] (^177Lu-tetrazine administered 4 days after the mAb CC49-23a) is reported as 21.3±4.0. Moreover, in the data set on LS174T tumor model [2] (^177Lu-tetrazine, mice pre-treated with CC49-23a 24 h before injection of the tetrazine), the “tumor-to-blood ratio (T/B)” value is on record as 3.1±1.0. In the data set on LS174T tumor model [3], the “Tumor/Blood ratio, ^177Lu-tetrazine” value is on record as 304 ± 80; the “Tumor/Bone ratio, ^177Lu-tetrazine” value is 142 ± 59; the “Tumor/Brain ratio, ^177Lu-tetrazine” value turned out to be 1674 ± 243; the “Tumor/Heart ratio, ^177Lu-tetrazine” value came out at 187 ± 20. In the data set on LS174T tumor model [3], the “Tumor/Kidney ratio, ^177Lu-tetrazine” value is given as 6 ± 2; the “Tumor/Liver ratio, ^177Lu-tetrazine” value worked out at 50 ± 10; the “Tumor/Lung ratio, ^177Lu-tetrazine” value is recorded as 39 ± 8; the “Tumor/Muscle ratio, ^177Lu-tetrazine” value was 328 ± 96. In the data set on LS174T tumor model [3], the “Tumor/Spleen ratio, ^177Lu-tetrazine” value is 108 ± 22; the “^177Lu-tetrazine in Blood” value is listed as 0.03 ± 0.00 % ID/gram; the “^177Lu-tetrazine in Bone” value is 0.08 ± 0.04 % ID/gram; the “^177Lu-tetrazine in Brain” value was 0.01 ± 0.00 % ID/gram. Further, in the data set with LS174T tumor model [3], the “^177Lu-tetrazine in Heart” value was 0.05 ± 0.01 % ID/gram, the “^177Lu-tetrazine in Kidney” value worked out at 1.50 ± 0.24 % ID/gram, the “^177Lu-tetrazine in Liver” value is 0.19 ± 0.02 % ID/gram and the “^177Lu-tetrazine in Lung” value is 0.24 ± 0.02 % ID/gram. Further, in the data set on LS174T tumor model [3], the “^177Lu-tetrazine in Muscle” value is on record as 0.03 ± 0.00 % ID/gram, the “^177Lu-tetrazine in Spleen” value was 0.09 ± 0.01 % ID/gram and the “^177Lu-tetrazine in Tumor” value is 9.25 ± 2.16 % ID/gram.

Consider `O=C(ON1C(=O)CCC1=O)c1ccc(OC2CC/C=C/CCC2)cc1` (single isomer, unassigned) [52b, (E-Minor)-2,5-dioxopyrrolidin-1-yl 4-(cyclooct-4-en-1-yloxy)benzoate], for which, in data set [1], the “Second order kinetic constant” value came to 333300 ± 625 M⁻¹ s⁻¹.

In the case of `CC(C)(OC1CC/C=C/CCC1)C(=O)ON1C(=O)CCC1=O` (single isomer, unassigned) [49a, (E-Major)-2,5-dioxopyrrolidin-1-yl 2-(cyclooct-4-en-1-yloxy)-2-methylpropanoate], the “Second order kinetic constant” value in data set [1] was 25080 ± 3865 M⁻¹ s⁻¹.

As for `O=C(ON1C(=O)CCC1=O)C(OC1CC/C=C/CCC1)c1ccccc1` (single isomer, unassigned) [46a, (E-Major)-2,5-dioxopyrrolidin-1-yl 2-(cyclooct-4-en-1-yloxy)-2-phenyl acetate], the “Second order kinetic constant” value in data set [1] stood at 28630 ± 1590 M⁻¹ s⁻¹.
